Reference: article PMC12090182, “Repurposing of the RIPK1-Selective Benzo[1,4]oxazepin-4-one Scaffold for the Development of a Type III LIMK1/2 Inhibitor” (ACS Chemical Biology, 2025)

Columns and labels:
Assay in all cases: biochemical
Format in all cases: binding
[1] = target: 468 kinases including some pathogenic mutants (Homo sapiens, UniProt P10721, A829P); conditions: read-out: Percent Control
[2] = target: 468 kinases including some pathogenic mutants (Homo sapiens, UniProt P04629); conditions: TRKA (Entrez NTRK1), 100 nM; read-out: Percent Control
[3] = target: 468 kinases including some pathogenic mutants (Homo sapiens, UniProt Q15831); conditions: LKB1 (Entrez STK11), 100 nM; read-out: Percent Control
[4] = target: 468 kinases including some pathogenic mutants (Homo sapiens, UniProt O75116); conditions: ROCK2 (Entrez ROCK2), 100 nM; read-out: Percent Control
[5] = target: 468 kinases including some pathogenic mutants (Homo sapiens, UniProt P27448); conditions: MARK3 (Entrez MARK3), 100 nM; read-out: Percent Control
[6] = target: 468 kinases including some pathogenic mutants (Homo sapiens, UniProt P29597); conditions: read-out: Percent Control
[7] = target: 468 kinases including some pathogenic mutants (Homo sapiens, UniProt P0C264); conditions: SgK110 (Entrez SgK110), 1000 nM; read-out: Percent Control
[8] = target: 468 kinases including some pathogenic mutants (Homo sapiens, UniProt Q8WTQ7); conditions: GRK7 (Entrez GRK7), 100 nM; read-out: Percent Control
[9] = target: 468 kinases including some pathogenic mutants (Homo sapiens, UniProt Q9BRS2); conditions: RIOK1 (Entrez RIOK1), 100 nM; read-out: Percent Control
[10] = target: 468 kinases including some pathogenic mutants (Homo sapiens, UniProt P41743); conditions: PRKCI (Entrez PRKCI), 100 nM; read-out: Percent Control
[11] = target: 468 kinases including some pathogenic mutants (Homo sapiens, UniProt Q15349); conditions: read-out: Percent Control
[12] = target: 468 kinases including some pathogenic mutants (Homo sapiens, UniProt P42336, C420R); conditions: read-out: Percent Control
[13] = target: 468 kinases including some pathogenic mutants (Homo sapiens, UniProt Q86YV6); conditions: MYLK4 (Entrez MYLK4), 1000 nM; read-out: Percent Control
[14] = target: 468 kinases including some pathogenic mutants (Homo sapiens, UniProt Q9Y2H1); conditions: NDR2 (Entrez STK38L), 100 nM; read-out: Percent Control
[15] = target: 468 kinases including some pathogenic mutants (Homo sapiens, UniProt P08581); conditions: MET (Entrez MET), 100 nM; read-out: Percent Control
[16] = target: 468 kinases including some pathogenic mutants (Homo sapiens, UniProt P33981); conditions: TTK (Entrez TTK), 100 nM; read-out: Percent Control
[17] = target: 468 kinases including some pathogenic mutants (Homo sapiens, UniProt Q86UX6); conditions: YANK3 (Entrez STK32C), 100 nM; read-out: Percent Control
[18] = target: 468 kinases including some pathogenic mutants (Homo sapiens, UniProt P43403); conditions: ZAP70 (Entrez ZAP70), 1000 nM; read-out: Percent Control
[19] = target: 468 kinases including some pathogenic mutants (Homo sapiens, UniProt Q9HC98); conditions: NEK6 (Entrez NEK6), 1000 nM; read-out: Percent Control
[20] = target: 468 kinases including some pathogenic mutants (Homo sapiens, UniProt Q16620); conditions: TRKB (Entrez NTRK2), 100 nM; read-out: Percent Control
[21] = target: 468 kinases including some pathogenic mutants (Homo sapiens, UniProt Q02763); conditions: TIE2 (Entrez TEK), 1000 nM; read-out: Percent Control
[22] = target: 468 kinases including some pathogenic mutants (Homo sapiens, UniProt Q8N5S9); conditions: CAMKK1 (Entrez CAMKK1), 100 nM; read-out: Percent Control
[23] = target: 468 kinases including some pathogenic mutants (Homo sapiens, UniProt Q9Y2I7); conditions: PIKFYVE (Entrez PIKFYVE), 1000 nM; read-out: Percent Control
[24] = target: 468 kinases including some pathogenic mutants (Homo sapiens, UniProt P00519, H396P)
[25] = target: 468 kinases including some pathogenic mutants (Homo sapiens, UniProt P06239); conditions: LCK (Entrez LCK), 100 nM; read-out: Percent Control
[26] = target: 468 kinases including some pathogenic mutants (Homo sapiens, UniProt O43683); conditions: BUB1 (Entrez BUB1), 100 nM; read-out: Percent Control
[27] = target: 468 kinases including some pathogenic mutants (Homo sapiens, UniProt P35968); conditions: VEGFR2 (Entrez KDR), 100 nM; read-out: Percent Control
[28] = target: 468 kinases including some pathogenic mutants (Homo sapiens, UniProt P10721, L576P); conditions: read-out: Percent Control

Chain of 468 kinases including some pathogenic mutants (Homo sapiens, UniProt Q15349) (Q15349 whole entry, stated change not applied): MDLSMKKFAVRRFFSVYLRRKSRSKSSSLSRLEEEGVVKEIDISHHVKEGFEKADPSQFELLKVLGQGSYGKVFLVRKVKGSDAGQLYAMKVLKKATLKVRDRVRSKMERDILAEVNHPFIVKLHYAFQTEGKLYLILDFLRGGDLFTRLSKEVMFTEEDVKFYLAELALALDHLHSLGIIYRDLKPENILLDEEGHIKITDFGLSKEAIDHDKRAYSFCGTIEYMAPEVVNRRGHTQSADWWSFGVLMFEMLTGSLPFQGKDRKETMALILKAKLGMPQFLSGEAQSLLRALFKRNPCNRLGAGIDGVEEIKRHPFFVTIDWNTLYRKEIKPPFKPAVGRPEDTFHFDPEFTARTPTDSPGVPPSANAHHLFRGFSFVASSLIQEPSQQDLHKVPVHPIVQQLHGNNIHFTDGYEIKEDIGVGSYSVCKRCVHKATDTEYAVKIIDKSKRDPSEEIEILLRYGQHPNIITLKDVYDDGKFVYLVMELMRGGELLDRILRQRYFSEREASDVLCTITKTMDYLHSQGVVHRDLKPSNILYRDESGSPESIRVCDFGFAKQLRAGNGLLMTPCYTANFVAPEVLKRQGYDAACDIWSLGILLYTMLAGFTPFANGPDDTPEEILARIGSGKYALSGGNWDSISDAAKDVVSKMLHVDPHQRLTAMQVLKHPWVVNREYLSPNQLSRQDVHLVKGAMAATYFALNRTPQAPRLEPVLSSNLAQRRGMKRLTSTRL
Chain of 468 kinases including some pathogenic mutants (Homo sapiens, UniProt P29597) (P29597 whole entry, change not shown): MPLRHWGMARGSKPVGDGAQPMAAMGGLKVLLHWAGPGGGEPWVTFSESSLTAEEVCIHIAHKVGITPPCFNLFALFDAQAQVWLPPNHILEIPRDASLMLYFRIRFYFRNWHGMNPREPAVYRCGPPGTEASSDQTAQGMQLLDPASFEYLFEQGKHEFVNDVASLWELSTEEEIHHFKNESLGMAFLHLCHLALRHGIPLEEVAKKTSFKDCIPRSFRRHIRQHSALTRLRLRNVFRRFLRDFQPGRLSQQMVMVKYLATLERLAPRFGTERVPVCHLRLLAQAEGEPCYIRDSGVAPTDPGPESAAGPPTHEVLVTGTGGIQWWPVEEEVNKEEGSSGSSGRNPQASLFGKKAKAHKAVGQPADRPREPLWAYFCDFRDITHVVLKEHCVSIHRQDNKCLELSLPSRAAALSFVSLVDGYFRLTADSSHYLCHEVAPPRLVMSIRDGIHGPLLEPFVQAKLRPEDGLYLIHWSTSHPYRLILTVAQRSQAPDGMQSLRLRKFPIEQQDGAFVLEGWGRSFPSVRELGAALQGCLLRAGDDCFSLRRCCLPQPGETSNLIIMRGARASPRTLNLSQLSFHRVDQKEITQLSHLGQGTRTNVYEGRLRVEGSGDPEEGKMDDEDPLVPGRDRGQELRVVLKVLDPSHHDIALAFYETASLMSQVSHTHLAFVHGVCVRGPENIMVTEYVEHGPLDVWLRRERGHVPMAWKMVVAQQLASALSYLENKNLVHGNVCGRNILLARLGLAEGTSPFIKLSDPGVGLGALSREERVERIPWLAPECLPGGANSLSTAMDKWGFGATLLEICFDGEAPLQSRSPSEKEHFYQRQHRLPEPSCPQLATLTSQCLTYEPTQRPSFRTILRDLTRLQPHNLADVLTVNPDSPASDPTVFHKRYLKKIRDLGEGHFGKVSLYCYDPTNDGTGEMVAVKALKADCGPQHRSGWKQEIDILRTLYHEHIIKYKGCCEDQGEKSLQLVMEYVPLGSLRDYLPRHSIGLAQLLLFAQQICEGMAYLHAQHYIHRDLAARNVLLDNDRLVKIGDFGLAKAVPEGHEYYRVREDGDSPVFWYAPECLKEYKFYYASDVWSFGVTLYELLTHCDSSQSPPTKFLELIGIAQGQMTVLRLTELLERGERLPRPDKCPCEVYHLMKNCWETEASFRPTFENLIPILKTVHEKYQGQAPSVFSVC
Chain of 468 kinases including some pathogenic mutants (Homo sapiens, UniProt P35968) (P35968 20-1356, stated change not applied): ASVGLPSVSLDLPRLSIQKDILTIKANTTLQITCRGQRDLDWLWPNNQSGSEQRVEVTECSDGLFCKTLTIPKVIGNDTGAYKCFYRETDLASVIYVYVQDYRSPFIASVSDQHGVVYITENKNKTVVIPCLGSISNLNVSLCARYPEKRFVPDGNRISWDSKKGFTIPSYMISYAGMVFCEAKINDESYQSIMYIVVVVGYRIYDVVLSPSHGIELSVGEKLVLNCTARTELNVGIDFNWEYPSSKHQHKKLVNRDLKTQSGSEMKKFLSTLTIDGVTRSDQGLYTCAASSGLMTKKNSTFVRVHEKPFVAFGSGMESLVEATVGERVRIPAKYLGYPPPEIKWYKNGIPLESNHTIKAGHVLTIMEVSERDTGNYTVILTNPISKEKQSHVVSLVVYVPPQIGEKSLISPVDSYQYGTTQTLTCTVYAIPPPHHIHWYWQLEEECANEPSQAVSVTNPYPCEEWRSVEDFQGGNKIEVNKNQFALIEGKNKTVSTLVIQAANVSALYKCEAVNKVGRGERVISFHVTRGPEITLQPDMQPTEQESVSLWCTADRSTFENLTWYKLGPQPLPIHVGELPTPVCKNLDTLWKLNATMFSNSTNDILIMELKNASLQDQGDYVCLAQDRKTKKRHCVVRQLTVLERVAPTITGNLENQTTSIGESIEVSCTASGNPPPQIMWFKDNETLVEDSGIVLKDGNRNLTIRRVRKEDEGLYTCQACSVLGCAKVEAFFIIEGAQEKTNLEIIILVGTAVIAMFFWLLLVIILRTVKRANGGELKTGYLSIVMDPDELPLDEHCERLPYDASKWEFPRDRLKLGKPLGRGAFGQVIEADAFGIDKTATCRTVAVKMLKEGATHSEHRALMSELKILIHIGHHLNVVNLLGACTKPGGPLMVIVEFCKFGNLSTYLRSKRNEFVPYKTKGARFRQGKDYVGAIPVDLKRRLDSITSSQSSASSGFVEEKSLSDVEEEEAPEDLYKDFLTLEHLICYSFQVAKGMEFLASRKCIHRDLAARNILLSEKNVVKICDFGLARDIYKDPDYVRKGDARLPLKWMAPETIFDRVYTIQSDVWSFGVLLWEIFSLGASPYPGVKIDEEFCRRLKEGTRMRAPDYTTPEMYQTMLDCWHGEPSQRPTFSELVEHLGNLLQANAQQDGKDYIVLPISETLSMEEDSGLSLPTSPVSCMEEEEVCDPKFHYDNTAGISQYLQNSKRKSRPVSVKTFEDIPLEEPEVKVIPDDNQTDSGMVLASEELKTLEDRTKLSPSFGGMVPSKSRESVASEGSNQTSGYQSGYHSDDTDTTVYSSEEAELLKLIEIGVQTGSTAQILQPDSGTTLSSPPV
Chain of 468 kinases including some pathogenic mutants (Homo sapiens, UniProt Q8WTQ7) (Q8WTQ7 whole entry, change not shown): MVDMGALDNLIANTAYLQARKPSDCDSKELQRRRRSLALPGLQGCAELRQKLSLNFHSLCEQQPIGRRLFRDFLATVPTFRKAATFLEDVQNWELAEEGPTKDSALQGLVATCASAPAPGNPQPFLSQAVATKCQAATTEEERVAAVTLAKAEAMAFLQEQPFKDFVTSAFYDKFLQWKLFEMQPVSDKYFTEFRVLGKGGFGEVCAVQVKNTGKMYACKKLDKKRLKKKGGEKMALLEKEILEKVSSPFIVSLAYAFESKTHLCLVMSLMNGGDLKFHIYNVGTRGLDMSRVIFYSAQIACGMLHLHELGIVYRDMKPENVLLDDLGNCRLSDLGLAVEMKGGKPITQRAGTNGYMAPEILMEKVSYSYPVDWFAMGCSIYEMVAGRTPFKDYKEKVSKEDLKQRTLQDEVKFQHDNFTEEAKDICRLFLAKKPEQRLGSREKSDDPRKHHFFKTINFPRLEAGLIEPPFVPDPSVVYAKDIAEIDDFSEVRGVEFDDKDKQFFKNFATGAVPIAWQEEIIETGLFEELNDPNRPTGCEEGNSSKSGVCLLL
Chain of 468 kinases including some pathogenic mutants (Homo sapiens, UniProt Q15831) (Q15831 whole entry, change not shown): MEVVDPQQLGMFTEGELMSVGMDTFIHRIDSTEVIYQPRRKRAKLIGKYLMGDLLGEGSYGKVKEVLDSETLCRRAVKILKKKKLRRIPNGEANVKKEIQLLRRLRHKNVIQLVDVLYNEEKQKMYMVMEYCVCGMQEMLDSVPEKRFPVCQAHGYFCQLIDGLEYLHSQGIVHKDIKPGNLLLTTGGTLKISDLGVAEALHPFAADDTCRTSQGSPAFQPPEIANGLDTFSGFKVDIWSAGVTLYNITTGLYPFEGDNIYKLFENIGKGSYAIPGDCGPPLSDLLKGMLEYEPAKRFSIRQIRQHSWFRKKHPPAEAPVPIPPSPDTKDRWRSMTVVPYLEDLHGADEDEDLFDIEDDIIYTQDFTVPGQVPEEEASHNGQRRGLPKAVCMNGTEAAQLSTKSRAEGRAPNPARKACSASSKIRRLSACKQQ
Chain of 468 kinases including some pathogenic mutants (Homo sapiens, UniProt P33981) (P33981 whole entry, change not shown): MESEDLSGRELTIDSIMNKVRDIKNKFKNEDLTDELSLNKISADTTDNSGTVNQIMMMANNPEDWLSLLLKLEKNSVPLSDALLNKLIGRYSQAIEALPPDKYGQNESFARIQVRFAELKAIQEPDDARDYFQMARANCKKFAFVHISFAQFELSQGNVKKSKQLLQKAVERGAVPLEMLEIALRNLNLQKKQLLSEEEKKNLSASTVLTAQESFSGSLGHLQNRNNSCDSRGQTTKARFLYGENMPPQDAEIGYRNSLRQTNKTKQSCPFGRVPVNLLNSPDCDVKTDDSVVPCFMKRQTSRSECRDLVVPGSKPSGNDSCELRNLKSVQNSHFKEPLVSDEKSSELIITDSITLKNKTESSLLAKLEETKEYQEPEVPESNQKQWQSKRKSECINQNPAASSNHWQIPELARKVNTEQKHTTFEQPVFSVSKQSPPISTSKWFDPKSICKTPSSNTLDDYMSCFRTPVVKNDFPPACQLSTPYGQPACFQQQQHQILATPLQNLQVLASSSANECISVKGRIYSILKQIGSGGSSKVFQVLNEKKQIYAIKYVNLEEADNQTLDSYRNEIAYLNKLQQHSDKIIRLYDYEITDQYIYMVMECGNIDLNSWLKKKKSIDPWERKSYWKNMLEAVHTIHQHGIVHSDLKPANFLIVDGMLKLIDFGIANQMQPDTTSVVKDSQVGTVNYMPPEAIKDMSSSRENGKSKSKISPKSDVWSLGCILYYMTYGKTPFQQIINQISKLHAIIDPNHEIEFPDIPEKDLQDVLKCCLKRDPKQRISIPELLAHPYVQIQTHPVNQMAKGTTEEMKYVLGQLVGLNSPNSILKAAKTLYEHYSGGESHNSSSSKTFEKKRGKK

CN1C(=O)[C@@H](N2CCc3c(nn(Cc4ccccc4)c3C(N)=O)C2=O)COc2cc(Cl)ccc21 [Compound 10, (S)-2-benzyl-6-(8-chloro-5-methyl-4-oxo-2,3,4,5-tetrahydrobenzo[b][1,4]oxazepin-3-yl)-7-oxo-4,5,6,7-tetrahydro-2H-pyrazolo[3,4-c]pyridine-3-carboxamide] gave a remaining activity at 1 µM [1] of 100%, a remaining activity at 0.1 µM [2] of 99% and a remaining activity at 0.1 µM [3] of 97%. For the same compound, the remaining activity at 0.1 µM [4] was 75%, the remaining activity at 0.1 µM [5] was 100% and the remaining activity at 0.1 µM ([6]; TYK2(JH1domain-catalytic) (Entrez TYK2), 100 nM) was 72%. For the same compound, the remaining activity at 1 µM [6] was 100%, the remaining activity at 1 µM [7] was 100% and the remaining activity at 0.1 µM [8] was 77%. It also gave a remaining activity at 0.1 µM [9] of 63%, a remaining activity at 0.1 µM [10] of 81% and a remaining activity at 0.1 µM ([11]; RSK3(Kin.Dom.1-N-terminal) (Entrez RPS6KA2), 100 nM) of 100%. It also gave a remaining activity at 1 µM ([11]; RSK3(Kin.Dom.2-C-terminal) (Entrez RPS6KA2), 1000 nM) of 100%, a remaining activity at 0.1 µM [12] of 88% and a remaining activity at 1 µM [13] of 100%. The remaining activity at 0.1 µM [14] was 71%, the remaining activity at 0.1 µM [15] was 99% and the remaining activity at 0.1 µM [16] was 82%. It also gave a remaining activity at 0.1 µM [17] of 86%, a remaining activity at 1 µM [18] of 100% and a remaining activity at 1 µM [19] of 100%. It also gave a remaining activity at 0.1 µM [20] of 88%, a remaining activity at 1 µM [21] of 100% and a remaining activity at 0.1 µM [22] of 70%. For the same compound, the remaining activity at 1 µM [23] was 100%, the “Percent Control” value ([24]; listed as LIJTF500025) was 73% and the remaining activity at 0.1 µM ([24]; read-out: Percent Control) was 67%. The remaining activity at 0.1 µM [25] was 100%, the remaining activity at 0.1 µM [26] was 84% and the remaining activity at 0.1 µM [27] was 81%. It also gave a remaining activity at 0.1 µM [28] of 72%.
